Experimental data reported in patent publication US11844754B2, “Methods for treatment of Parkinson's disease” (NeuroDerm, Ltd., priority 2020, dated 2023).
Like-named read-outs stand apart in the source and are kept apart here.

Experiments:
[1] = Plasma carbidopa Cmax after SC administration of several carbidopa doses, clinical trial ND0612-005a and ND0612-005b (Example 2b); assay type: in vivo, subjects (human); conditions: SC over 24 hours; 60 mg/ml levodopa with 7.5, 6 or 4 mg/ml carbidopa; 17.9, 26.9, 33.6 mg/24 h carbidopa
Procedure: In a separate clinical trial (ND0612-005a and ND0612-005b, open label design studies), the plasma carbidopa levels were tested in view of the subcutaneous administration of several carbidopa doses. Three formulations, comprising 60 mg/ml levodopa and (a) 7.5 mg/ml; (b) 6 mg/ml; or 4 mg/ml of carbidopa, were administered to three groups of subjects over the course of 24 hours, providing a total of 17.9 mg/24 h carbidopa to each subject in the first group, 26.9 mg/24 h carbidopa to each subject in the second group and 33.6 mg/24 h carbidopa to each subject in the third group.

[2] = Dose proportionality of SC LD/CD, clinical trial ND0612-001 (Example 2a); assay type: in vivo, healthy male subjects (human); conditions: 24 hour continuous SC infusion of LD (6% w/w)/CD (1.4% w/w) at 80, 120, 160, 200, 240 μl/h
Procedure: Subjects were administered with a composition comprising LD (6% w/w)/CD (1.4% w/w) by way of a 24 hour continuous infusion at varying infusion rates: • Group 1: 80 μl/h • Group 2: 120 μl/h • Group 3: 160 μl/h • Group 4: 200 μl/h • Group 5: 240 μl/h Several PK parameters were derived for both LD and CD in the dose proportionality assessment, including AUC (hr*ng/mL), Cmax (ng/mL), C15 (ng/mL), and C24 (ng/mL).

[3] = Plasma exposure of LD and CD after SC infusion, oral IR tablet, and SC + oral coadministration (crossover, Example 1); assay type: in vivo, healthy subjects (human); conditions: for 1. Treatment A AUC (0-8) × 0.853* / AUC(0-t): human; for 1. Treatment A AUC (0-8) × 0.853*: sc
From the text: A test was run in order to assess the plasma exposure of levodopa (LD) following the coadministration of LD and carbidopa (CD) in both subcutaneous (SC) and oral administrations. Accordingly, results obtained from a combined SC+oral administration were compared to results obtained from SC administration alone and from oral administration alone. An additive plasma exposure and PK profile was expected, i.e., it was expected that the SC+oral coadministration would provide results equal to the additive results of the SC and oral administrations, when each was administered separately.
16 healthy subjects (18-50 years) were treated in a crossover manner, i.e., sequentially, with a washout period of 6 days between the following two treatments:
Treatment A: A total dose of 180/22.5 mg LD/CD (formulation A) was administered by SC infusion over the course of 8 hours, at a steady infusion rate.
Treatment B: An immediate release (IR) tablet of 100/25 mg LD/CD was administered orally at time 0 h.
Following a 32 hour washout period, the same 16 healthy subjects were administered with LC/CD both orally and subcutaneously according to the following treatment:
Treatment C: A dose of 153.6/19.2 LD/CD (formulation A) was administered by SC infusion over the course of 8 hours, at a steady infusion rate, combined with a single co-administration of an oral IR LD/CD 100/25 mg tablet, 4 hours after the initiation of the infusion. Total LD/CD dose: 253.6/44.2 mg.
Blood samples were collected at the following time points:
Treatment A: 0 (prior to treatment initiation), 0.5 h, 1 h, 2 h, 3 h, 4 h, 5 h, 5.5 h, 6 h, 7 h, 8 h (prior to the end of the infusion).
Treatment B: 0 (prior to treatment initiation), 0.5 h, 1 h, 2 h, 3 h, 4 h.
The normalized AUC0-8 of LD and CD of Treatment C, resulting from the combined SC and oral treatment, as described above, was calculated and compared to the sum of the normalized LD and CD AUCs obtained from Treatment A (AUC0-8 resulting from 8 h SC infusion) and Treatment B (AUC0-4 resulting from one IR oral tablet).

in vivo = conditions: for AUC: female, pig, in vivo, sc, 600 mg, SC treatment AUC (G1) Actual
Procedure: The objective of this study was to determine the pharmacokinetics (PK) of levodopa (LD) in domestic pigs following continuous subcutaneous (SC) infusion of a levodopa prodrug, exemplified using LD-Tyr, administered concomitantly with oral Levodopa.
Table 3 provides the LD-Tyr formulation tested in this study: […]
The study consisted of 3 dosing sessions in which 5 female pigs (Swine/Landrace×large White, ˜40-50 kg each) were treated with the LD-Tyr solution of Table 3 and/or Sinemet IR oral tablets (CD/LD 25/100 mg tablet) in a cross-over design with up to 4-day washout period between dosing sessions, as detailed in the following tables:
As presented in Tables 4 and 5 above, the study included the following three test groups: • G1—received only SC LD-Tyr (600 mg total daily dose); • G2—received only oral LD (300 mg total daily dose); and • G3—received both SC LD-Tyr (600 mg total daily dose) and oral LD (200 mg total daily dose). Pharmacokinetics Blood Collection
Blood samples for the determination of LD-Tyr (in groups 1 and 3), as well as LD and CD plasma levels (in all groups) were collected from the pigs at the following timepoints: • 0 (pre-dose), 30 min, 1 h, 2 h, 3 h, 4 h, 4.5 h, 5 h, 6 h, 7 h, 8 h, 8.5 h, 9 h, 10 h, 11 h, 13 h, 15 h 18 h following treatment initiation. In case of pump occlusion (groups 1 and 3) resulting in infusion cessation, no further blood samples will be collected. Tablets were administrated before blood collection (time 0, 4 and 8 h). Bioanalysis
Plasma samples were analyzed for concentration of LD-Tyr (groups 1 and 3), as well as LD and CD (for all groups) using a qualified LC-MS/MS analytical method.
PK parameters (at least Cmax, tmax, t1/2, AUC) for LD-Tyr, LD and CD were calculated by noncompartmental methods using appropriate software (e.g. Phoenix® WinNonlin®). Individual and mean was calculated for quantitative parameters.
The LD exposure obtained from the SC infusion is considered to be the baseline.

Structure (SMILES)	dose proportionality of carbidopa Cmax [1]	dose proportionality of PK parameters (AUC, Cmax, C15, C24) [2]	1. Treatment A AUC (0-8) × 0.853* ([3]; in vivo)	AUC(0-t) ([3]; in vivo, plasma CD, formulation A 153.6/19.2 LD/CD SC infusion over 8 h + oral IR LD/CD 100/25 mg tablet at 4 h, individual subjects, read-out: 4. Treatment C AUC (0-8) [Observed])	AUC(0-t) ([3]; in vivo, plasma CD, formulation A 180/22.5 mg LD/CD SC infusion over 8 h, AUC multiplied by 0.853, individual subjects, read-out: 1. Treatment A AUC (0-8) × 0.853*)	AUC(0-t) ([3]; in vivo, plasma CD, oral IR tablet 100/25 mg LD/CD at 0 h, individual subjects, read-out: 2. Treatment B AUC (0-4))	Observed (C) vs. Additive Ratio ([3]; in vivo)	AUC (in vivo; Landrace x large White)	AUC (in vivo; plasma LD AUC, pigs, SC LD-Tyr/CD 600/26 mg over 8 hrs only, individual animals)	increase of LD plasma exposure by oral add-ons on top of SC administration, versus predicted (average) (in vivo; pigs, SC LD-Tyr/CD + oral LD/CD)	AUC(0-t) ([3]; in vivo, plasma LD, formulation A 153.6/19.2 LD/CD SC infusion over 8 h + oral IR LD/CD 100/25 mg tablet at 4 h, individual subjects, read-out: 4. Treatment C AUC (0-8) [Observed])	AUC(0-t) ([3]; in vivo, plasma LD, formulation A 180/22.5 mg LD/CD SC infusion over 8 h, AUC multiplied by 0.853 to equal SC dose of Treatment C, individual subjects, read-out: 1. Treatment A AUC (0-8) × 0.853*)	AUC(0-t) ([3]; in vivo, plasma LD, oral IR tablet 100/25 mg LD/CD at 0 h, individual subjects, read-out: 2. Treatment B AUC (0-4))	AUC(0-t) ([3]; plasma LD, formulation A 180/22.5 mg LD/CD SC infusion over 8 h, AUC multiplied by 0.853 to equal SC dose of Treatment C, individual subjects, read-out: 1. Treatment A AUC (0-8) × 0.853*)	3. Combined 1 + 2 [Estimated] ([3]; plasma LD, sum of normalized Treatment A and Treatment B AUCs, individual subjects)
C[C@@](Cc1ccc(O)c(O)c1)(NN)C(=O)O [CD, carbidopa]	clear dose proportionality	demonstrated dose proportionality	900	1050 ng·h/mL	942 ng·h/mL	322 ng·h/mL	lower than expected								
N[C@@H](Cc1ccc(O)c(O)c1)C(=O)O [LD, L-3,4-dihydroxyphenylalanine]		demonstrated dose proportionality	2412				higher than expected	17600 ng·h/mL	18000 ng·h/mL	over 50%	4770 ng·h/mL	2310 ng·h/mL	1420 ng·h/mL	3090 ng·h/mL	3087
